Experimental data published in ChEMBL document CHEMBL1157764, “Conserved high activity binding peptides are involved in adhesion of two detergent-resistant membrane-associated merozoite proteins to red blood cells during invasion” (J Med Chem, 2010).

species: Homo sapiens; assay: Binding affinity to RBC membrane receptor in human RBCs assessed as specific binding activity measured as ratio of specifically bound peptide/added peptide by gamma counter

Compound | Activity
CC[C@H](C)[C@H](NC(=O)[C@@H](NC(=O)[C@H](Cc1ccc(O)cc1)NC(=O)[C@H](CCC(=O)O)NC(=O)[C@H](CCCCN)NC(=O)[C@H](CCC(=O)O)NC(=O)[C@H](Cc1ccc(O)cc1)NC(=O)[C@H](CO)NC(=O)[C@H](Cc1ccccc1)NC(=O)[C@H](Cc1ccc(O)cc1)NC(=O)[C@H](CO)NC(=O)[C@@H](NC(=O)[C@H](CCSC)NC(=O)[C@H](Cc1ccc(O)cc1)NC(=O)[C@@H](NC(=O)CNC(=O)[C@H](CCCCN)NC(=O)[C@@H]1CCCN1C(=O)[C@@H](N)Cc1ccccc1)[C@@H](C)O)[C@@H](C)O)C(C)C)C(=O)N[C@@H](CO)C(=O)O | > 2%
CC[C@H](C)[C@H](NC(=O)[C@H](C)NC(=O)[C@@H](NC(=O)[C@H](Cc1ccccc1)NC(=O)[C@@H](NC(=O)[C@@H](NC(=O)[C@H](CC(N)=O)NC(=O)[C@@H](C)N)[C@@H](C)CC)[C@@H](C)CC)[C@@H](C)CC)C(=O)N[C@H](C(=O)N[C@@H](CO)C(=O)N[C@H](C(=O)N[C@H](C(=O)N[C@@H](CO)C(=O)N[C@@H](CC(C)C)C(=O)N[C@@H](CO)C(=O)N[C@H](C(=O)N[C@@H](CO)C(=O)N[C@@H](CO)C(=O)N[C@@H](Cc1ccccc1)C(=O)N[C@H](C(=O)N[C@@H](Cc1ccc(O)cc1)C(=O)O)[C@@H](C)CC)[C@@H](C)CC)[C@@H](C)CC)[C@@H](C)CC)[C@@H](C)CC | > 2%
CC[C@H](C)[C@H](NC(=O)[C@H](CC(C)C)NC(=O)[C@H](CS)NC(=O)[C@@H](NC(=O)[C@H](CC(C)C)NC(=O)[C@H](Cc1ccccc1)NC(=O)[C@H](CCC(N)=O)NC(=O)[C@H](CC(C)C)NC(=O)[C@H](CC(C)C)NC(=O)[C@H](CC(C)C)NC(=O)[C@@H](NC(=O)[C@H](Cc1cnc[nH]1)NC(=O)[C@H](CC(C)C)NC(=O)[C@@H](NC(=O)[C@H](Cc1ccccc1)NC(=O)[C@H](Cc1ccccc1)NC(=O)[C@@H]1CCCN1C(=O)[C@@H](NC(=O)[C@H](CCCCN)NC(=O)[C@@H](N)CCSC)[C@@H](C)CC)[C@@H](C)CC)[C@@H](C)CC)[C@@H](C)CC)C(=O)N[C@@H](Cc1ccc(O)cc1)C(=O)O | > 2%

Other lines, results leading:

Activity | Compound
> 2% | CC(C)[C@H](NC(=O)[C@H](Cc1cnc[nH]1)NC(=O)[C@@H](NC(=O)[C@H](CCCCN)NC(=O)[C@H](CCC(=O)O)NC(=O)[C@@H](NC(=O)[C@H](CC(N)=O)NC(=O)[C@H](CC(N)=O)NC(=O)[C@H](CCCNC(=N)N)NC(=O)[C@H](Cc1ccccc1)NC(=O)[C@H](C)NC(=O)[C@H](Cc1cnc[nH]1)NC(=O)[C@@H](NC(=O)[C@@H](NC(=O)[C@H](CO)NC(=O)[C@H](CCC(=O)O)NC(=O)[C@H](CC(N)=O)NC(=O)[C@@H](N)CO)C(C)C)[C@@H](C)O)[C@@H](C)O)[C@@H](C)O)C(=O)N[C@@H](Cc1cnc[nH]1)C(=O)N[C@@H](CCCCN)C(=O)N[C@@H](Cc1ccc(O)cc1)C(=O)O
> 2% | CC[C@H](C)[C@H](NC(=O)[C@H](CC(=O)O)NC(=O)[C@H](CCCCN)NC(=O)[C@H](CCC(=O)O)NC(=O)[C@H](CC(=O)O)NC(=O)[C@H](CCC(N)=O)NC(=O)[C@@H]1CCCN1C(=O)[C@H](NC(=O)[C@@H](NC(=O)[C@H](CCCCN)NC(=O)[C@H](CC(N)=O)NC(=O)[C@H](NC(=O)[C@H](CCSC)NC(=O)[C@@H](NC(=O)[C@@H](NC(=O)[C@H](CCC(=O)O)NC(=O)[C@H](CCC(N)=O)NC(=O)[C@@H](N)CC(=O)O)[C@@H](C)CC)[C@@H](C)O)[C@@H](C)CC)[C@H](C)O)[C@@H](C)CC)C(=O)N[C@@H](CC(C)C)C(=O)N[C@@H](Cc1ccccc1)C(=O)N[C@@H](Cc1ccc(O)cc1)C(=O)O
> 2% | CC[C@H](C)[C@H](NC(=O)[C@H](Cc1ccc(O)cc1)NC(=O)[C@@H](N)CC(N)=O)C(=O)N[C@@H](CCC(=O)O)C(=O)N[C@@H](CCC(=O)O)C(=O)N1CCC[C@H]1C(=O)N[C@@H](Cc1ccccc1)C(=O)N[C@@H](CO)C(=O)N[C@H](C(=O)N[C@H](C(=O)N[C@@H](Cc1ccccc1)C(=O)N[C@H](C(=O)N[C@H](C(=O)N[C@@H](CC(C)C)C(=O)N[C@@H](CCC(N)=O)C(=O)N[C@H](C(=O)N[C@@H](CCC(N)=O)C(=O)N[C@@H](CCSC)C(=O)N[C@@H](CC(N)=O)C(=O)O)[C@@H](C)O)[C@@H](C)CC)[C@@H](C)O)[C@@H](C)O)[C@@H](C)O
